Laboratory results: patent US20230027495A1, “METHODS OF TREATING CANCER WITH A COMBINATION OF AN ANTI-PD-1 ANTIBODY AND AN ANTI-TISSUE FACTOR ANTIBODY-DRUG CONJUGATE” (Genmab A/S, priority 2019, published 2023)
“Also recorded” adds a separate entry of the source. Non-standard residues stand in square brackets, D forms with d. Residues, ends and D or L forms follow the SMILES beside them. *: point of attachment. Dolaproine = CO[C@@H]([C@@H]1CCCN1)[C@@H](C)C(=O)O; Dil = CC[C@H](C)[C@H](NC)[C@@H](CC(=O)O)OC; X1 = C[C@@H](N*)[C@@H](O)c1ccccc1; NMeV = CN[C@H](C(=O)O)C(C)C

Columns and labels:
[1] = test system: HPAFII (pancreatic carcinoma) and MDA-MB-231 (breast carcinoma) cells; assay: Western blot of ER stress pathways in HPAFII and MDA-MB-231 cells; type: cell-based
Experimental: Induction of cell death and release of ICD danger signals occurs concomitant with initiation of an ER stress response. Two Tissue Factor positive cell lines, HPAFII (pancreatic carcinoma) and MDA-MB-231 (breast cell carcinoma) were exposed to tisotumab vedotin ADC, an Isotype-MMAE ADC (H00-MMAE, IgG1 MMAE), or free MMAE for 18 hours and induction of ER stress monitored by western blot analysis. Phosphorylation of inositol-requiring transmembrane kinase/endonuclease 1 (IRE1) was detected after treatment with tisotumab vedotin ADC or MMAE free drug (FIG. 6). […] The ability for auristatins to prime the immune system to recognize tumor antigens opens the door for a myriad of combinatorial therapeutic options.

[2] = test system: human peripheral blood mononuclear cells (PBMCs); assay: Monocyte/macrophage activation in human PBMCs fed drug-killed MDA-MB-231 cells; type: cell-based
Text: FIGS. 7A and 7B is a series of graphs in which Tissue Factor positive MDA-MB-231 cells killed with various agents were fed to human peripheral blood mononuclear cells (PBMCs) and immune activation assessed by increased expression of activations markers on innate CD14+ monocyte/macrophages and induction of chemokine and cytokine production.
Immunogenic cell death, as mediated by MMAE, is regulated cell death that activates adaptive immune responses against antigens from dead and dying tumor cells, and allows for the generation of robust innate immune cell activation and subsequent cytotoxic T cell responses targeted towards specific tumor cell antigens. […] Furthermore, these monocyte/macrophages conditioned by ICD-killed cells promote activation of T cells, as evidenced by production of signature inflammatory cytokines associated with cytotoxic T cell responses.

[3] = test system: HeLa cells; assay: Imaging of RFP-tubulin microtubule network and ER in HeLa cells in the presence of MMAE; type: cell-based; details: 100 nM MMAE
Experimental: HeLa cells were transduced with a baculovirus encoding RFP-labeled Tubulin (CellLight Tubulin-RFP, ThermoFisher Scientific) and an ER-binding dye (ER-ID Green, Enzo Life Sciences). Cells were treated with 100 nM MMAE and imaged over time in the present of MMAE. Within 2 hours, fragmentation and disassembly of the microtubule network became evident, concurrent with the breakdown of the perinuclear organized ER lattice (FIGS. 2A and 2B). The condensed and mislocalized ER skeleton indicated severe ER stress within 8 hours.

[4] = test system: HeLa cells; assay: ATP and HMGB1 secretion from MMAE-treated HeLa cells; type: cell-based; details: 100 nM MMAE, over 24 hours, vs untreated cells
Text: Induction of ICD is also characterized by the secretion of ATP and HMGB1. Extracellular ATP serves as a strong chemotactic signal, promoting immune cell migration to the tumor site. Upon arrival, extracellular HMGB1 signals through various pro-inflammatory receptors (TLR2, TLR4, RAGE) to activate antigen-presenting cells, thereby promoting immune activity within the tumor.

[5] = test system: HeLa cells; assay: Western blot of ER stress (IRE1 and JNK phosphorylation) in MMAE-treated HeLa cells; type: cell-based; details: 100 nM MMAE, 16 hours
Experimental: HeLa cells, a cervical cancer cell line, were cultured in Minimum Essential Medium (MEM) with 10% FBS, 10 mM HEPES, 1 mM sodium pyruvate, 2 mM L-glutamine, penicillin (100U/ml), and streptomycin (100 μg/ml). HeLa cells were treated with 100 nM MMAE for 16 hours and harvested in radioimmunoprecipitation assay buffer (RIPA) buffer for western blot analysis. Treatment with MMAE led to phosphorylation of the serine threonine kinase IRE1, indicating activation of ER stress. Severe ER stress is a prerequisite to the exposure of pro-phagocytic signals on the surface of tumor cells, and can be indicated by activation of JNK signaling by phosphorylated IRE1.

[6] = test system: Tissue Factor positive cell lines; assay: Cell death and ATP/HMGB1 release from Tissue Factor positive cell lines; type: cell-based; details: Tissue Factor positive cells
Text: Auristatin ADC payloads disrupt the microtubule networks resulting in altered ER localization and function, which ultimately results in ER stress.

[7] = test system: human peripheral blood mononuclear cells (PBMCs); assay: T cell activation in CSFE labeled human PBMCs fed drug-killed MDA-MB-231 cells, with or without pembrolizumab; type: cell-based
Text: Induction of the innate immune response following exposure to cancer cells undergoing ICD sets up secondary T cell activation, which can be enhanced by concomitant pembrolizumab treatment.

[8] = test system: murine tumor cells that stably express human TF; assay: Immunization of Balb/c mice with drug-killed human TF positive murine tumor cells, then tumor challenge (syngeneic model); type: in vivo; details: mice immunized with drug-killed human TF positive tumor cells
Experimental: Mouse tumor cells are transfected with plasmid constructs encoding human tissue factor (TF) and sgRNA-guided Cas9 nuclease (sgRNA/Cas9) to generate a murine cell line that expresses the human TF. Fluorescence activated cell sorting (FACS) yields a clonal population of murine tumor cells that stably express human TF, these cells are then treated with 1 μg to 5 μg per ml of tisotumab vedotin or 100 nM of MMAE for 4 days. In order to prepare dying cells for immunization, treated murine tumor cells are overlaid atop Histopaque, and centrifuged at 2000 g for 30 minutes. Dead and dying cells are pelleted underneath the Histopaque layer, and viability assessed by trypan blue exclusion. A sample with approximately <20% live cells as measured by trypan blue exclusion is obtained. Flash-frozen tumor cells are prepared by submerging the cells in liquid nitrogen for 10 seconds, followed by immersion in 37° C. water until completely thawed. The liquid nitrogen freeze-thaw process is repeated 5 times. Dead and dying human TF positive tumor cells are resuspended in phosphate buffered saline (PBS) and 2×10^6 cells are injected into the peritoneum of immune-competent Balb/c mice. Seven days later, mice receive a second immunization with dead and dying cells prepared in the same manner.
Fourteen days after initial immunization with the dead and dying human TF positive tumor cells, mice are subcutaneously implanted with 5×10^6 wild-type tumor cells and monitored for tumor growth. […] As these effects occur in the absence of any administered therapeutic agent, the administration of cells killed by tisotumab vedotin or MMAE is sufficient to generate long-lasting protective immune memory against subsequent tumor cell challenge. Protective immune memory is amplified by treating these mice with tisotumab vedotin in combination with an antibody that binds to murine PD-1.

[9] = test system: cervical cancer; details: cited from earlier work
[10] = managed with interruptions of pembrolizumab, corticosteroids and/or other supportive care; cited from earlier work
[11] = test system: MDA-MB-231 xenograft; assay: MDA-MB-231 xenograft model in humanized NSG mice; type: in vivo; details: pembrolizumab alone, first dose 10 mg/kg, then 5 mg/kg every five days, IP
Experimental: The in vivo anti-tumor efficacy of tisotumab vedotin in combination with an anti-PD-1 monoclonal antibody was evaluated in NOD.Cg-PrkdC^scid Il2rg^tm1Wj1/SzJ (NSG) immunodeficient mice (The Jackson Laboratory, Stock No. 005557), humanized by engraftment with human CD34^+ hematopoietic stem cells (Jackson Laboratories, Sacramento). Mice were subcutaneously inoculated with 5×10^6 MDA-MB-231 cells (breast adenocarcinoma; American Tissue Culture Collection (ATCC), cat. no. HTB-26), in 100 μL phosphate-buffered saline (PBS). Before inoculation, cells were cultured in DMEM with high glucose and HEPES without L-glutamine (Lonza, cat. no. BE12-709F), 10% (v/v) donor bovine serum with iron New Zealand Origin (Thermo Fisher Scientific, DBSI, cat. no. 10371-029), 2 mM L-glutamine (Lonza, cat. no. BE17-605E), 1 mM Na-pyruvate (Lonza, cat. no. BE13-115E), MEM non-essential amino acids (Life Technologies, cat. no. 11140) and 1% (v/v) penicillin/streptomycin (Lonza, cat. no. DE17-603E), in CellSTACK culture chambers (Corning, cat. no. 3313).
Tumor size was determined by caliper measurement at least two times a week and tumor volume was calculated as 0.52×length×width^2. When tumors reached the size of 100 mm^3 mice were randomized in 7 groups (8 mice per treatment group) based on mouse cohort and tumor size (Table 1). Mice were treated with tisotumab vedotin alone (1 mg/kg or 0.5 mg/kg), intravenously, weekly for a maximum of five treatments, or in combination with an anti-PD-1 antibody (i.e., pembrolizumab, KEYTRUDA®, 50 mg concentrate, Merck & Co., Inc., Kenilworth, N.J. USA) or with anti-PD-1 antibody alone. The first dose of the anti-PD-1 antibody (i.e., pembrolizumab) was 10 mg/kg, followed by 5 mg/kg every five days for a maximum of six treatments. Mice in control groups were administered 1 mg/kg of IgG1 isotype control antibody or IgG1 isotype control antibody conjugated to MMAE intravenously, weekly for a maximum of five treatments (Table 1). The IgG1 isotype control antibody is the b12 antibody which is known to bind to HIV-1 gp120. […]

[12] = HPAFII and MDA-MB-231 cells, 18 hours
[13] = PBMCs fed drug-exposed MDA-MB-231 cells, 48 hours

CC[C@H](C)[C@@H]([C@@H](CC(=O)N1CCC[C@H]1[C@H](OC)[C@@H](C)C(=O)N[C@H](C)[C@@H](O)c1ccccc1)OC)N(C)C(=O)[C@@H](NC(=O)[C@@H](NC)C(C)C)C(C)C [MMAE, Monomethyl auristatin E, reference compound] (H-[NMeV]V[Dil][Dolaproine]-X1)
activation of JNK (phosphorylation) [1, 12]: increased phosphorylation | activation of PERK pathway (ATF4 cleavage) [1, 12]: upregulation of ATF4 cleavage | phosphorylation of IRE1 [1, 12]: detected | activation of ER stress pathways (phosphorylation of IRE and JNK, cleavage of ATF4) ([1]; HPAFII or MDA-MB-231 cells, 16 hours): trigger multiple ER stress pathways | monocyte/macrophage activation by CD86 expression ([2]; CD14+ monocyte/macrophages, flow cytometry, PBMCs fed killed MDA-MB-231 cells, compared to IgG1-MMAE ADC or tisotumab alone): drove monocyte/macrophage activations | release of innate chemokines ([2]; PBMCs fed killed MDA-MB-231 cells, compared to IgG1-MMAE ADC or tisotumab alone): induced release of innate chemokines including MIP10 | chemotactic and inflammatory mediators from monocyte/macrophages ([2]; after uptake of killed Tissue Factor positive cells): elicit strong chemotactic and inflammatory mediators | microtubule network and ER localization [3]: led to disassembly of the microtubule network and subsequent ER mislocalization | time to fragmentation and disassembly of the microtubule network and breakdown of the ER lattice [3]: ≤ 2 h | time to severe ER stress (condensed and mislocalized ER skeleton) [3]: ≤ 8 h | secretion of ATP [4]: increased secretion | secretion of HMGB1 [4]: increased secretion | phosphorylation of IRE1 and JNK (ER stress) [5]: led to phosphorylation of both IRE1 and JNK; also recorded: elicited severe ER stress by phosphorylation of IRE1 and JNK | ATP secretion/release [6]: drove robust A) ATP secretion; also recorded: specific to tisotumab vedotin ADC and MMAE treatment | HMGB1 release [6]: HMGB1 release; also recorded: specific to tisotumab vedotin ADC and MMAE treatment | T cell proliferation (CSFE dilution) [7, 13]: drove T cell proliferation | production of IFNγ [7, 13]: increased; also recorded: production of T cell specific cytokines | production of IL12p70 [7, 13]: increased; also recorded: production of T cell specific cytokines | survival after challenge with wild-type tumor cells [8]: increased survival | tumor growth after challenge with wild-type tumor cells [8]: delayed tumor growth

pembrolizumab: anti-PD-1 monoclonal antibody, checkpoint inhibitor, also known as KEYTRUDA® [reference compound]
objective response rate ([9]; 200 mg Q3W, 82 patients with previously treated, advanced cervical cancer): 12% | objective response rate (ORR) ([9]; 2L+ PD-L1-positive recurrent or metastatic cervical cancer, 42% previously treated with bevacizumab): 14% | reversibility of immune-related AEs (irAEs) [10]: most irAEs were reversible | tumor burden as assessed by tumor volume [11]: hardly reduced tumor burden | T cell proliferation driven by tisotumab vedotin or MMAE killed cells, effect of added pembrolizumab ([7]; 2 mg/ml of pembrolizumab, 48 hours): enhanced | cytokine production after tisotumab vedotin or MMAE killed cells, effect of concomitant pembrolizumab ([7]; IL12p70 and IFNγ, 48 hours): increased | secondary T cell responses after tisotumab vedotin induced ICD, effect of pembrolizumab ([7]; concomitant pembrolizumab treatment): can be amplified
